Values belong to the compound of their own block, whether it stands above or below them.
Key:
[1] = molecular target: BDNF/NT-3 growth factors receptor (Homo sapiens) (UniProt Q16620); experiment: Selectivity interaction (KinomeScan (DiscoverX)) EUB0000607a NTRK2; details: at 10 µM
[2] = molecular target: Phosphorylase b kinase gamma catalytic chain, skeletal muscle/heart isoform (Homo sapiens) (UniProt Q16816); experiment: Selectivity interaction (KinomeScan (DiscoverX)) EUB0000607a PHKG1; details: at 10 µM
Chain of Phosphorylase b kinase gamma catalytic chain, skeletal muscle/heart isoform (Homo sapiens) (Q16816 whole entry, looked up, canonical isoform): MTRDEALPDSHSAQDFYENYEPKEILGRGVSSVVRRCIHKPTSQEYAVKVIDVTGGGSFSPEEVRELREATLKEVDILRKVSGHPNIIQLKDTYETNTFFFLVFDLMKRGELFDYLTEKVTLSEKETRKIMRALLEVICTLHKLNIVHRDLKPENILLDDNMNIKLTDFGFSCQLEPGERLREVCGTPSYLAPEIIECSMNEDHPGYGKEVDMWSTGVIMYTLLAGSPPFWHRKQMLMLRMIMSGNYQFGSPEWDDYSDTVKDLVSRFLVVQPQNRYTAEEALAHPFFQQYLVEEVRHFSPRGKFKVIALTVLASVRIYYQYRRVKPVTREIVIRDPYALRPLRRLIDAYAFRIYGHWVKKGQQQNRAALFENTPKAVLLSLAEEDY

[3] = molecular target: Serine/threonine-protein kinase 26 (Homo sapiens, UniProt Q9P289); experiment: Selectivity interaction (ActivX KiNativ screen (kinase selectivity in THP-1 cell lysates)) EUB0000639a STK26; assay type: subcellular; details: lysate, at 5 µM
Chain of Serine/threonine-protein kinase 26 (Q9P289 2-416 limits assumed): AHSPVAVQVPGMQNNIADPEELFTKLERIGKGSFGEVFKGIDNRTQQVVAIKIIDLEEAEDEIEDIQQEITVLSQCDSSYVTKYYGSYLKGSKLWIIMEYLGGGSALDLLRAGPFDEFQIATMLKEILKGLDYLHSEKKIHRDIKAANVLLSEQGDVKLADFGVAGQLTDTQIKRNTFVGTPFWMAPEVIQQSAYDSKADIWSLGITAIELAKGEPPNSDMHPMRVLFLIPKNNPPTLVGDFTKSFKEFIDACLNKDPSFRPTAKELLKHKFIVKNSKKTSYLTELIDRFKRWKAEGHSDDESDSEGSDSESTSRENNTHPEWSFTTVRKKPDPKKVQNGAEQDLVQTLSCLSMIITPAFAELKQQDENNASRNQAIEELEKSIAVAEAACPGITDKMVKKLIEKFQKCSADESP

[4] = molecular target: Tyrosine-protein kinase Fes/Fps (Homo sapiens) (UniProt P07332); experiment: Selectivity interaction (ActivX KiNativ screen (kinase selectivity in THP-1 cell lysates)) EUB0000639a FES; assay type: subcellular; details: lysate
Chain of Tyrosine-protein kinase Fes/Fps (Homo sapiens) (P07332 whole entry): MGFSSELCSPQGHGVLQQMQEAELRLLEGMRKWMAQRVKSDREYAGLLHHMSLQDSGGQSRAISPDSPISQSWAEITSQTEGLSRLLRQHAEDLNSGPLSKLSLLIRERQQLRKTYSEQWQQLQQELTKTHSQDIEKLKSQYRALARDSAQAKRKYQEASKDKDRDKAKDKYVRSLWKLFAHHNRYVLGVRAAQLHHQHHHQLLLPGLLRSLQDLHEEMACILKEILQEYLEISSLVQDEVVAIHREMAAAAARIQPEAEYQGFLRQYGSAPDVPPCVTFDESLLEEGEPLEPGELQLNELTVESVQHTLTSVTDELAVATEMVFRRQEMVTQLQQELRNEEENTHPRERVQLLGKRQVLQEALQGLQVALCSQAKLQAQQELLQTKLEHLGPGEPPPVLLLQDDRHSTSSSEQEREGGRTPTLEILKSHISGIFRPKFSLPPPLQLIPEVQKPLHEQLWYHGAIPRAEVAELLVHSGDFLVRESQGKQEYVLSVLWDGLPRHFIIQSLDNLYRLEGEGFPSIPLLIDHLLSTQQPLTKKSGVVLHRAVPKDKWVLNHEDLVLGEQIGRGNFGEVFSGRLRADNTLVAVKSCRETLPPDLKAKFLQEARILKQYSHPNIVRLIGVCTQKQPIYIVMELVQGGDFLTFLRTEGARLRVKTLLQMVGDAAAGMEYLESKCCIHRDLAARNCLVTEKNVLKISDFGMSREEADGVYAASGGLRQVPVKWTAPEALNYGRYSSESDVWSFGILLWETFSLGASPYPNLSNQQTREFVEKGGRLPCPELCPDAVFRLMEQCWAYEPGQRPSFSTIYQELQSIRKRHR

[5] = molecular target: CDK8/Cyclin C (Homo sapiens) (UniProt P49336+P24863); experiment: Selectivity interaction (ProQinase) EUB0000171b CDK8; assay type: protein-complex assay
[6] = molecular target: G protein-coupled receptor kinase 5 (Homo sapiens, UniProt P34947); experiment: Selectivity interaction (Kinase panel (DSF assay)) EUB0001559a GRK5
Chain of G protein-coupled receptor kinase 5 (P34947 whole entry, looked up): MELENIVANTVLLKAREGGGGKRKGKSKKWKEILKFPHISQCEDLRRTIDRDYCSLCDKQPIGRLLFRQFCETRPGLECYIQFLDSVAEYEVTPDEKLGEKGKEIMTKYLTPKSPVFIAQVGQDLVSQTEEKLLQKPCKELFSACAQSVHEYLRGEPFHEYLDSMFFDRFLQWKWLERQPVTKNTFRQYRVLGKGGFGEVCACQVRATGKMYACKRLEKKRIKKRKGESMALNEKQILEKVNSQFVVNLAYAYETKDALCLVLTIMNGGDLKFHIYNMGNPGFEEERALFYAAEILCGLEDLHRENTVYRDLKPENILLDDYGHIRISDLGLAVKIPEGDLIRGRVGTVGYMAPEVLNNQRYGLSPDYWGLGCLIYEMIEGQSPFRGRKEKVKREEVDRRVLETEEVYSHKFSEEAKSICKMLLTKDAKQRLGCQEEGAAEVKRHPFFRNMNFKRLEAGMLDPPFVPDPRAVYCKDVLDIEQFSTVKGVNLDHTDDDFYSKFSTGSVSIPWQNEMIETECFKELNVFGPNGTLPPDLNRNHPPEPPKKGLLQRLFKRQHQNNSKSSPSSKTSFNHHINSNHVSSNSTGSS

[7] = molecular target: Mitogen-activated protein kinase 4 (Homo sapiens) (UniProt P31152); experiment: Selectivity interaction (Ambit KINOMEscan and KiNATiv profiling in Jurkat cells) EUB0000090b MAPK4; assay type: cell-based; details: at 1 µM
Chain of Mitogen-activated protein kinase 4 (Homo sapiens) (P31152 whole entry): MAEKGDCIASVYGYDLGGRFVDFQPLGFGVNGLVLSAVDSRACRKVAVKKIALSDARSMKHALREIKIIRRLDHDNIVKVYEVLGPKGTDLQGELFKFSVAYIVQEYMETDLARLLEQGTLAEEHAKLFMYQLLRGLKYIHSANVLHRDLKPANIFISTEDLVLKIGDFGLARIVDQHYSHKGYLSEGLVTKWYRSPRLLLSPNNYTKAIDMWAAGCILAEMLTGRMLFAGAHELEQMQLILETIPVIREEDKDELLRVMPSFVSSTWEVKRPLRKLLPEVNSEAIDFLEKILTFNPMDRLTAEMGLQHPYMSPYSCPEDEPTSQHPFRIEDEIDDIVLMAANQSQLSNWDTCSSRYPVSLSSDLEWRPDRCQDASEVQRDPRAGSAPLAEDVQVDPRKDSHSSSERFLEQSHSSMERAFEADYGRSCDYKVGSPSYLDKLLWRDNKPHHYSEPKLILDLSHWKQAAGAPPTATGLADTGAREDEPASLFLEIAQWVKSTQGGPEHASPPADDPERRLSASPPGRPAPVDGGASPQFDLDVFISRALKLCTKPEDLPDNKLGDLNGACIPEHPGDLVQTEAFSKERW

[8] = molecular target: T1, Dual specificity mitogen-activated protein kinase kinase 5 (Homo sapiens) (UniProt Q13163); experiment: Selectivity interaction (KinomeScan (DiscoverX)) EUB0000655a MAP2K5; details: at 10 µM
T1 sequence (whole entry): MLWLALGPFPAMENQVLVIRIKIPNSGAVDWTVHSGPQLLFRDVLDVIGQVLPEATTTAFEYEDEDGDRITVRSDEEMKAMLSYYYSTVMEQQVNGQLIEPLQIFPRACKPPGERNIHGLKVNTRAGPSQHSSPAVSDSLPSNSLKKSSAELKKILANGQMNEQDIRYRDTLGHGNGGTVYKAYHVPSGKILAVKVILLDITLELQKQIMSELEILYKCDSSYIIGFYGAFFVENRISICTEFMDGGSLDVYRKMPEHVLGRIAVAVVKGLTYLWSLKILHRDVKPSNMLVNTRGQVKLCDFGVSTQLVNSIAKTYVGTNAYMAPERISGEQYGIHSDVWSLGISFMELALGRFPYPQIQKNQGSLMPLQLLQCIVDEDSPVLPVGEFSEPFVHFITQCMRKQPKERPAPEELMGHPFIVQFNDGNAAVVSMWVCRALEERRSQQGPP

[9] = molecular target: Macrophage colony-stimulating factor 1 receptor (Homo sapiens) (UniProt P07333); experiment: Selectivity interaction (KinomeScan (DiscoverX)) EUB0000655a CSF1R; details: at 10 µM
Chain of Macrophage colony-stimulating factor 1 receptor (Homo sapiens) (P07333 whole entry): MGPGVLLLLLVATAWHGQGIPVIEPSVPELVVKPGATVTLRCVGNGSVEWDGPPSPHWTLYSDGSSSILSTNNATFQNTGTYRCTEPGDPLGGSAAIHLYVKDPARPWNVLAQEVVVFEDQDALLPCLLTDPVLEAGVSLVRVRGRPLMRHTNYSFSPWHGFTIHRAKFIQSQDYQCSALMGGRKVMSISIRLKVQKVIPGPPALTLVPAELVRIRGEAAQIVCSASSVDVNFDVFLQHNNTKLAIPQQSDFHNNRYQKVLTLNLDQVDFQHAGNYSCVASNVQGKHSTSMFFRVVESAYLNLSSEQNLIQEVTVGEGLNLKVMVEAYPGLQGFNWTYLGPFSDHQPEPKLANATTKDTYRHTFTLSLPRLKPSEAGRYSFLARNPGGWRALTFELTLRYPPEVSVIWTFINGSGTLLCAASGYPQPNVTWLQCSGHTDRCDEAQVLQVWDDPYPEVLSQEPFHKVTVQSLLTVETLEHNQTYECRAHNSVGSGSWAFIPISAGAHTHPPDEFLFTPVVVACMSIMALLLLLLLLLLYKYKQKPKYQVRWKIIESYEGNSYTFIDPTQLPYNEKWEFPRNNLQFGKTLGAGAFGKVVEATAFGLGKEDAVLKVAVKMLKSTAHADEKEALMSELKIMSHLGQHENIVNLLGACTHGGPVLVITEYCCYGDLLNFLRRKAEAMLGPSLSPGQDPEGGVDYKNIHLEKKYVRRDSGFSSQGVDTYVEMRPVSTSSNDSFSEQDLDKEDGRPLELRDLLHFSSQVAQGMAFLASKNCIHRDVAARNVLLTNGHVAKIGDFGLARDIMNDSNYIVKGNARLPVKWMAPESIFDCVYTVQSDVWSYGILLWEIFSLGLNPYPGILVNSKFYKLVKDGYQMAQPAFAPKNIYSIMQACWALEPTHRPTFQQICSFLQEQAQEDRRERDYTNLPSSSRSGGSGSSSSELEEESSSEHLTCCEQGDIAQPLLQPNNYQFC

[10] = molecular target: T2, Serine/threonine-protein kinase Chk1 (Homo sapiens) (UniProt O14757); experiment: Selectivity interaction (KinomeScan (DiscoverX)) EUB0000229b CHEK1; details: at 10 µM
T2 sequence (whole entry): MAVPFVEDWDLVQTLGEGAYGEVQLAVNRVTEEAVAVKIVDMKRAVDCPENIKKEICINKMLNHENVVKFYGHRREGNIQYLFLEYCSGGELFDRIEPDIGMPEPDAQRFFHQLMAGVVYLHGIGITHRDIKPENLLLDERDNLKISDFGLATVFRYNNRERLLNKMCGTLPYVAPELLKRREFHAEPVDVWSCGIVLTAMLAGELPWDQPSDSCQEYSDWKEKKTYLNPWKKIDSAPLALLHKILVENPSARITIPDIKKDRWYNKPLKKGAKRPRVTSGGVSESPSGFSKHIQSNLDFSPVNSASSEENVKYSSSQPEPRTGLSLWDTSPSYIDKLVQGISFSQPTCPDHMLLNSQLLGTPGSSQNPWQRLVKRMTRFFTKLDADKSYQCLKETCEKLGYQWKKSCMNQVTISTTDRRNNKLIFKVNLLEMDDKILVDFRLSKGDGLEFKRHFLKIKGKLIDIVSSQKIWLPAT

[11] = molecular target: Ribosomal protein S6 kinase alpha-5 (Homo sapiens) (UniProt O75582); details: at 10 µM
Chain of Ribosomal protein S6 kinase alpha-5 (Homo sapiens) (O75582 whole entry, looked up): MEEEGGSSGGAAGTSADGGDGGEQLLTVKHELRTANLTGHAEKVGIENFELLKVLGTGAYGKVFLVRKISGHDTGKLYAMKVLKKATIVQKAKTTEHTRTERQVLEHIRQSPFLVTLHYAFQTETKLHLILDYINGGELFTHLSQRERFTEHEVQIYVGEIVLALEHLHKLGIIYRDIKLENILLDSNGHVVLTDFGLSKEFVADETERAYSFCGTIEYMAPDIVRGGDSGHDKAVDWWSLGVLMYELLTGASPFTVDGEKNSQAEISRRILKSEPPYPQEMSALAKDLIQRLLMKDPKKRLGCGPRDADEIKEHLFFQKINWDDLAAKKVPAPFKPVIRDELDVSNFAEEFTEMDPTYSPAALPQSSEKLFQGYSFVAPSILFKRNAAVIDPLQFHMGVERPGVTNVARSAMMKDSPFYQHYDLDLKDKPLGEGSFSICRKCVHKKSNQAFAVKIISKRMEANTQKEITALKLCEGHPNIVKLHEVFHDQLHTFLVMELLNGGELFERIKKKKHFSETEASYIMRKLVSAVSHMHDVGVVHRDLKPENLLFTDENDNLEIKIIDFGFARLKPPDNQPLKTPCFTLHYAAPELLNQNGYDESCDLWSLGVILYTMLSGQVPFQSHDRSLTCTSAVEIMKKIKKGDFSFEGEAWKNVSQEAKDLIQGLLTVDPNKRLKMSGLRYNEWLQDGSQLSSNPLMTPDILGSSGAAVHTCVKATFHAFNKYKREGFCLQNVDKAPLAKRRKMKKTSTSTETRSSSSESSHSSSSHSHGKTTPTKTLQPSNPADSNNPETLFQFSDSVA

[12] = molecular target: T3, Interleukin-1 receptor-associated kinase 3 (Homo sapiens) (UniProt Q9Y616); experiment: Selectivity interaction (ActivX KiNativ screen (ex vivo kinase selectivity in human PBMCs)) EUB0001619a IRAK3; assay type: cell-based; details: PBMC, at 1 µM
T3 sequence (whole entry): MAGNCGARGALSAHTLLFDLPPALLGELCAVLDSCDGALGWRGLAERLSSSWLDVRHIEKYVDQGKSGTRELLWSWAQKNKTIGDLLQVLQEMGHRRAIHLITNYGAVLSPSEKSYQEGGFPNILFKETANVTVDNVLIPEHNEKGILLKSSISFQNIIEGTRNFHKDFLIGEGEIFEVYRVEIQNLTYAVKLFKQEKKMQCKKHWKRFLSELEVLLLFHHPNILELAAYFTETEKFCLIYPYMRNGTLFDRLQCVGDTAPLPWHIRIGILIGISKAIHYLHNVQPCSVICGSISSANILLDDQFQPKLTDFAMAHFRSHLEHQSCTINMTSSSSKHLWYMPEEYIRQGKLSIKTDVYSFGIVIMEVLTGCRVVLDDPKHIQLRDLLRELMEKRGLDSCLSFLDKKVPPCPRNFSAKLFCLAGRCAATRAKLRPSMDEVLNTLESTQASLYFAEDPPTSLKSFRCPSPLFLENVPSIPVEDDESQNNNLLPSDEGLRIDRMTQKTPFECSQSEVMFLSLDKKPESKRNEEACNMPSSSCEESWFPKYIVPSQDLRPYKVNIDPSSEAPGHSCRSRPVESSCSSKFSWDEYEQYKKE

Compound: CNC(=O)Nc1ccc(-c2nc(N3CC4CCC(C3)O4)c3cnn(C4CCC5(CC4)OCCO5)c3n2)cc1
% of control [1]: 100% | % of control [2]: 100%

% of inhibition [3]: 21.8% | % of inhibition ([4]; at 0.01 µM): 0.3% | % of inhibition ([4]; at 0.04 µM): 2.2% | % of inhibition ([4]; at 0.2 µM): 5.7% | % of inhibition ([4]; at 1 µM): 0.6% | % of inhibition ([4]; at 5 µM): -23.7%
Compound: CC[C@@H]1[C@H](F)C(=O)N[C@@H]1COc1nccc2cc(C(N)=O)c(OC)cc12 [ZIMLOVISERTIB]

% of control ([5]; at 1 µM): 67% | % of control ([5]; at 5 µM): 29%
Compound: C=CC(=O)Nc1cccc(C(=O)Nc2ccc(Nc3cc(-c4[nH]c(SC)nc4C)ccn3)cc2)c1

dTM [6]: 0 K
Compound: CN(C(=O)c1cnn2cccnc12)c1cc2c(cc1N1CCOCC1)C(=O)N(C[C@@H](F)C(C)(C)O)C2

Compound: CN(C)C/C=C/C(=O)Nc1ccc(C(=O)N2CCCC(Nc3ncc(Cl)c(-c4c[nH]c5ccccc45)n3)C2)cc1 (configuration not stated)
% of control [7]: 64%

Compound: CN(C)CCOc1ccc(-c2nc(-c3ccncc3)c(-c3ccc4c(c3)CC/C4=N\O)[nH]2)cc1
% of control [8]: 22% | % of control [9]: 86%

Compound: COc1cc(N(C)c2ccnc3ccc(C(F)(F)F)cc23)cc(OC)c1OC
% binding [10]: 92%

Compound: Cc1cc([C@@H](C)Nc2ccccc2C(=O)O)c2nc(N3CCOCC3)cc(=O)n2c1 [AZD-6482]
% of control [11]: 81%

Compound: N#Cc1cccc(-c2c[nH]c3ncnc(N4CCOCC4)c23)c1
% of inhibition [12]: 34%
